Five compounds from patent US12605390B2, “Treatment of cancer and inhibition of metastasis” (Celex Oncology Innovations Limited, priority 2017, dated 2026) can be followed below.

The subject of data set [1] is MDA-MB-231 cells. Briefly: MTT proliferation assay. The settings on record: 48 hours; for effect on cell proliferation versus negative controls: 10 μM, hypoxic and normoxic conditions. Type of data set: cell-based, human. As to the method:
Cells were plated at 2×10^4 cells/ml in 24-well plates (Becton-Dickinson) and allowed to settle overnight. The cells were then treated for the required time of incubation (24 hours+), with medium changes every 24 hours. At the end of the treatment, the medium was removed, and this was followed by the colorimetric 3-[4,5-dimethylthiazol-2-yl]-2,5-diphenyltetrazolium bromide ([…]) assay (Grimes et al., 1995). Briefly, 0.1 ml MU (5 mg/ml made up in the growth medium) and 0.4 ml growth medium was added in each well and the plate was incubated for 3-4 hours at 37° C. The medium was then removed from the chambers and replaced with 0.5 ml dimethyl sulfoxide (DMSO) and 0.063 ml glycine buffer (0.1 M glycine and 0.1 M NaCl; pH 10.5). Absorbance at 570 nm was determined 15 minutes after the addition of the glycine buffer. Results were calculated as means of nine repeats of each of the treatment vs. control spectrophotometer readings from individual invasion wells.
Proliferation was indirectly measured using MTT (3-(4,5-dimethylthiazolyl-2)-2,5-diphenyltetrazolium). In principle, MTT is taken up and processed by metabolically active cells, which produce formazan as a by-product. Formazan is a purple dye which can be quantified on a spectrophotometer, providing a link between absorbance readings (570 nm) and cell number.
Cells were plated in 24-well plates at a density of 2×10^4 cells per well and pre-treated with 1 ml of the respective drug solutions (see FIG. 5.) for 48 hours in hypoxia and normoxia. 0.1 ml of MU (1 mg/ml) diluted in 0.4 ml of media was administered to each well, followed by 4 hours of incubation in dark, normoxic conditions (MU is light—sensitive). The solution was subsequently aspirated and 0.5 ml of 99.9% DMSO was added in combination with 75 μL glycine buffer. The dye was able to dissolve in DMSO during a 15 minute—incubation on a shaking platform at 150 cycles/minute. The absorbance was read using ELX800 Universal Microplate Reader (BioTek Instruments) with the background measuring 0.04. […]

The test system of data set [2] is MDA-MB-231 cells. Put plainly: Matrigel invasion assay under hypoxia. Type of data set: cell-based, human. As to the method:
This assay is an extension of the transverse migration assay described above. To “invade”, the cells need both (i) to move as in the transverse migration assay and (ii) secrete a proteolytic enzyme to digest their surroundings. The ability of cells to invade neighbouring tissues by enzyme secretion was therefore assessed by using a layer of Matrigel™ (BD Biosciences) spread across the porous membrane of a Transwell® insert.
50 μl Matrigel™ was seeded at a 1:7 dilution (10 mg/ml stock) onto the inserts and left overnight. Prior to seeding with the cells the Matrigel™ was rehydrated using medium with no additions. This medium was removed prior to seeding the cells.
Cells were plated in a 1-5% FBS chemotactic gradient overnight (12 hours).
Invaded cells were fixed for 15 minutes with ice-cold methanol. […] The inserts were swabbed again and then washed in water and allowed to dry. Cells were then counted using twelve separate fields of view per insert (×200 magnification). If the difference in the average number of cells invading the two control inserts was more than 40%, the experiment was rejected.
The matrigel solidified at 37° C. normoxia overnight and was hydrated at 37° C. normoxia for 3 hours using 0.5 ml FBS-free media. 300 μL of media containing 5% FBS was administered to the lower chamber and the same amount of media containing 1% FBS was added to the upper chamber (transwell filters). 2×10^4 cells were added to the 1% solution, allowing their invasion through the matrigel along the chemotactic gradient. Cells were left to settle and invade under hypoxic conditions overnight.

A further data set concerns the target T1, persistent current (Homo sapiens, UniProt Q14524).
T1 construct: transient and persistent sodium current, using the highly invasive human breast cancer cell line MDA-MB-231; endogenous in cells; host or cells: MDA-MB-231
Briefly: Patch-clamp (data not shown). The data set is classed as cell-based. The settings on record: 10 μM.

Data set [3] concerns MDA-MB-231 cells. Put plainly: Lateral motility (wound heal) assay. Type of data set: cell-based, human. The settings on record: 10 μM, hypoxic conditions. As to the method: In order to determine lateral motility, a “wound-heal (“scratch”)” test was carried out, in which a scratch 504 of […] was made through the layer of cells, as shown in FIG. 5(b) which is a side sectional view of the cell culture dish. During the period of 24 hours following the formation of the scratch, the cells moved into the gap.
10^6 cells were plated in each 35×10 mm dish and kept in normoxic conditions to settle overnight. Each dish was marked by 15 parallel vertical lines and 3 non-overlapping horizontal lines. The media was refreshed and three wounds were made along the marked vertical lines using a 1 ml Gilson pipette tip. Floating cells were removed by 3 consecutive media washes and adherent cells were treated with 1 ml of the respective drug solution (10 μM Eleclazine/DMSO). The initial wound width (W0) was measured at 45 fixed points (where the vertical lines cross the wounds) using the graticule on a phase-contrast microscope (×10 magnification). Cells were then incubated in both normoxic and hypoxic conditions, with drug solutions being replaced every 24 hours. Wound width was measured every 12 hours and the motility of this breast cancer cell line was analysed using the “motility index” (MI=1-(Wt/W0)). A motility index of 1 accounts for complete wound closure, whereas MI=0 represents zero cell movement. […]

Another data set deals with neonatal Nav1.5. Briefly: Immunocytochemistry of nNav1.5 protein expression in MDA-MB-231 cells. The settings on record: 10 μM, 24 hour treatment, normoxic and hypoxic conditions. The data set is classed as cell-based, human. As to the method: Cells were pre-treated with either 10 μM Eleclazine or DMSO in both normoxic and hypoxic conditions for 24 hours. The following day, round 13 mm coverslips were placed into 24-well plates and incubated with 0.5 ml poly-L-lysine for 20 minutes. The solution was aspirated and 2×10^4 pre-treated cells were added on top of each coverslip. The wells were filled up to 0.5 ml with the respective drug solutions and cells were left to settle onto the coverslips in normoxic and hypoxic conditions overnight.
Cells were washed with PBS and fixed by incubating coverslips with 0.5 ml 4% PFA (in PBS) for 15 minutes. Coverslips were then washed in PBS three times for 5 minutes. Half of the samples were permeabilised in 0.1% Saponin/PBS (4 minutes) followed by three 5 minute washes in PBS. Cells were blocked for 1 hour with 0.5 ml 5% BSA/PBS (pH 7.4). Coverslips were incubated with 70 μL NESOpAb (primary antibody specific for neonatal Nav1.5; 1:100 dilution) for 1 hour in a humidity chamber (room temperature). Three 5 minute PBS washes rinsed off residual NESOpAb and the secondary antibody (goat anti-rabbit IgG Alexa Fluor 568, 1:100 dilution) was administered for 1 hour in the dark. […]
Imaging was conducted on a Zeiss axiovert 200 inverted microscope. […] The corrected total cell fluorescence was quantified using ImageJ.

For data set [4], the system named is MDA-MB-231 cells. The data set is classed as cell-based, human. The settings on record: 20 μM, 48 hours. As to the method: Cells were seeded at a density of 5×10^4 cells/ml in 35 mm Falcon tissue culture dishes. After treatment with a given drug, the medium was removed and replaced with 800 μl of growth medium and 200 μl 0.4% trypan blue (Sigma, Dorset, UK) and incubated for 10 minutes in the incubator. The trypan blue was removed and the cells were washed once with 3 ml growth medium. For each treatment, cells from 30 random fields of view were counted under 100× magnification. The number of dead cells, stained blue, was counted in each field of view. The data were expressed as percentages of living cells out of the total number of cells in given fields of view. The percentages were averaged and differences between control and treatment were compared from at least three independent experiments.
Cell viability and therefore drug toxicity was determined using the trypan blue assay. The procedure follows the principle that viable cells surrounded by an intact double membrane cannot absorb the trypan blue dye, whereas dead and fragmented cells can. […]
The solution was subsequently replaced with 0.2 ml of 0.4% trypan blue (Sigma-Aldrich) and 0.8 ml of media. […] Cell viability was determined by counting the proportion of viable and dead cells in 30 fields of view on each dish (Zeiss Axiovert 25 phase contrast microscope, ×40 magnification).

Data set [5] deals with MDA-MB-231 cells. The settings on record: 24 hours.

Each structure is given as a SMILES string. Read-outs that look alike come from different tables or passages of the source.

On to `CC[N+](CC)(CC)CC` [TEA], for which the “reduction of cell proliferation” value in the data set on MDA-MB-231 cells [1] (2 mM, positive control) is “approximately 50%”.

Regarding `NC1=N[C@H](O)[C@H]2[C@H]3O[C@]4(O)O[C@@H]([C@@H](O)[C@@]2(N1)[C@@H]4O)[C@]3(O)CO` [TTX, tetrodotoxin, reference compound], in the data set on MDA-MB-231 cells [2], the effect on invasiveness result was “decreases”.

For `O=C1c2cc(-c3ccc(OC(F)(F)F)cc3)ccc2OCCN1Cc1ncccn1` [eleclazine, 4-(pyrimidin-2-ylmethyl)-7-(4-(trifluoromethoxy)phenyl)-3,4-dihydrobenzo[f][1,4]oxazepin-5(2H)-one], the “effect on persistent current” value at persistent current was “effectively blocked”. Moreover, in the data set with MDA-MB-231 cells [2] (0.5 μM, hypoxia (1% O2), 24 h pre-incubation, invasion over 16 h), the effect on invasiveness result was “does not affect invasiveness”. Further, in the data set on MDA-MB-231 cells [2] (1 μM, hypoxia (1% O2), 24 h pre-incubation, invasion over 16 h, control 175.0 (113 & 255)), the “number of cells invading, median (interquartile range)” value is on record as 131.5 (100 & 175). In the data set on MDA-MB-231 cells [2] (5 μM, hypoxia), the reduction of invasiveness entry is reported as “approximately 50%”. The “effect on invasiveness (preliminary assays)” value with MDA-MB-231 cells [2] (10 μM, hypoxic conditions) was “drastically reduced”. Besides, the “reduction of lateral motility” value in the data set on MDA-MB-231 cells [3] (after 12 hours) was found to be 5%; with MDA-MB-231 cells [3] (after 48 hours) it was 30%. In the data set with neonatal Nav1.5, the “nNav1.5 protein expression, corrected total cell fluorescence (CTCF)” value is on record as “statistically significant reduction”. In the data set on MDA-MB-231 cells [1], the “effect on cell proliferation versus negative controls” value was “no statistically significant difference”. Moreover, the “average proportion of viable cells per field of view” value in the data set with MDA-MB-231 cells [4] stood at 99.96%.

Take `OO` [hydrogen peroxide]: the results for the “mean detachment negative pressure, change versus untreated cells” value in the data set with MDA-MB-231 cells [5] (1 μM), with MDA-MB-231 cells [5] (10 μM) and with MDA-MB-231 cells [5] (100 μM) were “approximately −9%”, “approximately −14%” and “approximately −20%”, respectively.

Turning to `COc1ccccc1OCC(O)CN1CCN(CC(=O)Nc2c(C)cccc2C)CC1` (centres unmarked) [ranolazine, reference compound], the effect on invasiveness entry in the data set on MDA-MB-231 cells [2] (5 μM, hypoxia (1% O2), 24 h pre-incubation, invasion over 16 h) was “suppress invasiveness significantly”. Besides, in the data set with MDA-MB-231 cells [1], the “effect on cell proliferation versus negative controls” value is recorded as “no significant effect”.
